Data on eleven compounds can be found in article PMC7884259 (Journal of medicinal chemistry, 2020).

Numbering of substitutions follows the chain as printed. Like-named read-outs stand apart in the source and are kept apart here. Where no end group is shown, it is not given here.

Experiment [1] deals with T1, ATAD2B bromodomain (Homo sapiens, UniProt Q9ULI0).
T1 sequence (Q9ULI0 953-1085): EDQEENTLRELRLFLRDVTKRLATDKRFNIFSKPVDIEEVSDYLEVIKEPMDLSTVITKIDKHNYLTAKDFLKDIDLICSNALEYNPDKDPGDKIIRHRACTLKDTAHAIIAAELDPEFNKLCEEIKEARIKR
Put plainly: ITC binding to the wild-type ATAD2B bromodomain.

The target of experiment [2] is T2, ATAD2Bshort bromodomain (lacks residues 988–992, VDIEE) (Homo sapiens, UniProt Q9ULI0, DEL988-992).
T2 sequence (Q9ULI0 953-1080 isoform Q9ULI0-2): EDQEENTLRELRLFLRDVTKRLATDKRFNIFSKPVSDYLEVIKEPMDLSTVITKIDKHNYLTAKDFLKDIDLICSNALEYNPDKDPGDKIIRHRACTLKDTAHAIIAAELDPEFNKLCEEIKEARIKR
Put plainly: ITC binding to the ATAD2Bshort splice variant bromodomain. Particulars: ITC at 5 °C, 20 mM NaH2PO4 pH 7.0, 150 mM NaCl; no binding in duplicate.

For experiment [3], the target named is ATAD2 bromodomain. Conditions: cited from earlier work.
The test system of experiment [4] is ATAD2 bromodomain. Conditions: time-resolved fluorescence energy transfer; cited from earlier work.
Experiment [5] addresses T3, ATAD2B bromodomain Y995A (Homo sapiens, UniProt Q9ULI0, Y995A).
T3 sequence (Q9ULI0 953-1085 Y995A): T1 sequence (Q9ULI0 953-1085) with Y43A
Put plainly: ITC binding to the ATAD2B bromodomain mutant Y995A. Particulars: ITC at 5 °C, 20 mM NaH2PO4 pH 7.0, 150 mM NaCl; no binding in duplicate.

The target in experiment [6] is T4, ATAD2B bromodomain Y1037A (Homo sapiens, UniProt Q9ULI0, Y1037A).
T4 sequence (Q9ULI0 953-1085 Y1037A): T1 sequence (Q9ULI0 953-1085) with Y85A
Put plainly: ITC binding to the ATAD2B bromodomain mutant Y1037A. Conditions: ITC at 5 °C, 20 mM NaH2PO4 pH 7.0, 150 mM NaCl; no binding in duplicate.

“LGK(Ac)GGAK(Ac)RHRK-NH2 [H4K12acK16ac (res 10–20)]”: in experiment [1], the Kd is 214 ± 7 µM.

As for “8-(((3R,4R)-3-((1,1-dioxidotetrahydro-2H-thiopyran-4-yl)-methoxy)-piperidin-4-yl)amino)-3-methyl-5-(5-methylpyridin-3-yl)-1,7-naphthyridin-2(1H)-one [compound 38, reference compound]”, the “Dissociation constant, ATAD2Bshort bromodomain” value in experiment [2] is on record as “no binding”. Further, the Kd in experiment [3] (read-out: ATAD2 reported KDs (binding affinity)) is 0.09 µM.

Take “H4K5acK8acK12acK16ac (1–25): tetra-acetylated histone H4 residues 1–25 peptide of the cited TR-FRET assay”: in experiment [4], the “recognition by the ATAD2 bromodomain in TR-FRET” value is given as “recognizes”.

For the compound “H4K5acK12ac (1–25): diacetylated histone H4 residues 1–25 peptide of the cited TR-FRET assay”, the “recognition by the ATAD2 bromodomain in TR-FRET” value in experiment [4] is reported as “recognizes”.

On to SGRGK(Ac)GGKGL-NH2 [H4K5ac (res 1–10)], for which the “Dissociation constant, Y995A ATAD2B bromodomain” value in experiment [5] is reported as “no binding”. For the same compound, the “Dissociation constant, ATAD2Bshort bromodomain” value in experiment [2] was “no binding”. The “Dissociation constant, Y1037A ATAD2B bromodomain” value in experiment [6] is listed as “no binding”. Moreover, the Kd in experiment [3] (read-out: ATAD2 reported KDs, value is for the H4K5ac res 1–20 peptide) is 22 µM.

SGRGKGGK(Ac)GL-NH2 [H4K8ac (res 1–10)]: in experiment [3] (qualitative), the “ATAD2 reported KDs (no KD available, interaction only)” value was “NA, interaction shown[16]”.

Consider “SGRGK(Ac)GGK(Ac)GL-NH2 [H4K5acK8ac (res 1–10)]”, for which, in experiment [5], the “Dissociation constant, Y995A ATAD2B bromodomain” value is “no binding”. Besides, the “Dissociation constant, ATAD2Bshort bromodomain” value in experiment [2] is “no binding”. In addition, the “Dissociation constant, Y1037A ATAD2B bromodomain” value in experiment [6] is on record as “no binding”.

As to “GKGGKGLGKGGAKRHRK [H4 unmodified (res 4–17)]”, in experiment [5], the “Dissociation constant, Y995A ATAD2B bromodomain” value is given as “no binding”. Besides, in experiment [2], the “Dissociation constant, ATAD2Bshort bromodomain” value was “no binding”. Further, the “Dissociation constant, Y1037A ATAD2B bromodomain” value in experiment [6] is given as “no binding”.

Regarding RKSTGG(Kac)APRKQ [H3K14ac (res 8–19)], the “ATAD2 reported KDs” value in experiment [3] (result is for the H3K14ac res 1–21 peptide) is “no binding (res 1–21)[14]”.

“SGRGK(Ac)QGGKARA-NH2 [H2AK5ac (res 1–12)]”: the “Dissociation constant, Y995A ATAD2B bromodomain” value in experiment [5] was “no binding”. For the same compound, in experiment [2], the “Dissociation constant, ATAD2Bshort bromodomain” value is “no binding”. The “Dissociation constant, Y1037A ATAD2B bromodomain” value in experiment [6] was “no binding”.

Regarding `CC(=O)NCCCC[C@H](NC(=O)CNC(=O)[C@H](CC(C)C)NC(=O)CNC(=O)[C@H](CCCCN)NC(=O)CNC(=O)CNC(=O)[C@H](CCCCN)NC(=O)CN)C(=O)NCC(=O)NCC(=O)N[C@@H](C)C(=O)N[C@@H](CCCCN)C(=O)N[C@@H](CCCNC(=N)N)C(N)=O` [H4K12ac (res 4–17)], the “Dissociation constant, Y995A ATAD2B bromodomain” value in experiment [5] was “no binding”. Moreover, in experiment [2], the “Dissociation constant, ATAD2Bshort bromodomain” value is on record as “no binding”. Moreover, the “Dissociation constant, Y1037A ATAD2B bromodomain” value in experiment [6] is listed as “no binding”. Further, the Kd in experiment [3] (read-out: ATAD2 reported KDs, value is for the H4K12ac res 1–25 peptide) was 2.5 µM; in experiment [1] it was 50.5 ± 5.8 µM.
